Experiments:
mice of the HFD group = assay: Comparison with mellitin: body weight changes in HFD mice; assay type: in vivo; conditions: 0.5 mg/kg intraperitoneally for 16 weeks, vs control group (PBS)
Method: In order to investigate a component having an excellent obesity inhibitory effect among the components of bee venom, mellitin, which is the most abundant in bee venom, was compared with bvPLA2, which is PLA2 derived from bee venom.
More specifically, the mice of the ND and HFD groups were intraperitoneally administered with PBS, mellitin, and bvPLA2 at 0.5 mg/kg each for 16 weeks, and then the body weight changes were compared every day.

[1] = test system: mice with HFD-induced obesity; assay: Adipose tissue weight and body weight of mice with HFD-induced obesity; assay type: in vivo, C57BL/6 mice
Method: (§1) Male C57BL/6 mice (5 weeks old; weight 18-20 g) and CD206−/− mice (B6.129P2-MRC1tm1Mnz/J) were purchased from Jackson Laboratory (Bar Harbor, Me.). After acclimation for one week, the mice were fed a normal diet (ND, 10 kcal %) or a high-fat diet (HFD, 60 kcal %) for 15 weeks. Thereafter, the mice were intraperitoneally injected with PBS or bvPLA2 (0.5 mg/kg) starting on week 5 and continuing for 11 weeks.
The obesity amelioration effect of bvPLA2 was evaluated through changes in adipose tissue weight and body weight of mice with HFD-induced obesity.
More specifically, the […] mice were fed ND or HFD for 15 weeks. After 4 weeks of ND or HFD feeding, the mice were injected with PLA2 or PBS, starting on week 5 (FIG. 1A). Thereafter, the adipose tissue and body weight were measured according to the injection or non-injection of bvPLA2.

[2] = test system: CD206-deficient (CD206-/-) mice lacking the mannose receptor; assay: Body weight and adipose tissue weight of CD206-deficient mice on HFD; assay type: in vivo; conditions: HFD+PLA2 vs HFD group
Method: as §1
In order to investigate the immunoregulatory effect of bvPLA2, CD206-deficient (CD206−/−) mice lacking the mannose receptor were used.
More specifically, the body weight and adipose tissue weight of CD206−/− mice were measured by way of the same method as the above experimental schedule (FIG. 1A).

[3] = test system: obesity-induced mice, regulatory T cell depletion; assay: Body weight of obesity-induced mice with regulatory T cell depletion (anti-mouse CD25 PC61) or rat IgG control; assay type: in vivo
Method: Anti-mouse CD25 (clone: PC61) was produced from hybridomas obtained from the American Type Culture Collection (ATCC; Manassas, Va., USA), and the mice were intraperitoneally injected with anti-mouse CD25 or rat IgG (Sigma-Aldrich) every 3 days for 11 weeks.
In order to investigate the correlation between bvPLA2 and regulatory T cells, regulatory T cell depletion was performed by injecting anti-mouse CD25 antibody (clone PC61) into mice every 3 days. Rat IgG was used as a control.

[4] = test system: liver and kidney tissues from the mice; assay: H&E staining of liver and kidney: HFD-induced hepatic steatosis and kidney damage; assay type: in vivo
Method: (§2) Liver and kidney tissues were fixed in 4% paraformaldehyde overnight, dehydrated, embedded in paraffin, and sectioned to a thickness of 4 μm. The sections were deparaffinized with xylene and then hydrated again with 100%, 90%, 80%, and 70% ethanol. The hydrated sections were washed with tap water and stained with a hematoxylin solution for 5 minutes. Thereafter, the stained sections were immersed in 1% acid alcohol, and then stained again in an eosin solution for 3 minutes. Thereafter, for mounting, the stained sections were dehydrated with 70%, 80%, 90%, or 100% ethanol […].
In order to investigate whether PLA2 alleviated HFD-induced hepatic steatosis and kidney inflammation, liver and kidney tissues from the mice were H&E stained.
Next, the glomerular diameter indicating an early indicator of diabetic nephropathy caused by kidney damage was investigated.

[5] = test system: HFD-induced metabolic dysfunction; assay: Serum/plasma levels of liver, kidney and metabolic markers by group; assay type: in vivo, mice
Method: The effects of bvPLA2 on liver and kidney functions were investigated.
More specifically, serum levels of alanine aminotransferase (ALT), aminotransferase (AST), blood urea nitrogen (BUN), and […] (Crea) were measured for each group.
In order to investigate the effect of bvPLA2 on metabolic syndrome, the triglyceride (TG), glucose (GLU), high-density lipoprotein cholesterol (HDL-C), and low-density lipoprotein cholesterol (LDL-C) levels were analyzed for each group.
In addition, plasma insulin and leptin levels were analyzed for each group.

[6] = test system: pro-inflammatory macrophages in WAT; assay: H&E histological examination of macrophage infiltration in WAT; assay type: in vivo, mice; conditions: bvPLA2-treated HFD+PLA2 group vs HFD group
Method: as §2
Since obesity is characterized by the localization of crown-like structures (CLS), which are formed by pro-inflammatory macrophages surrounding dead adipocytes in AT28, H&E histological examination was performed to investigate whether bvPLA2 inhibited the macrophage infiltration in WAT.

[7] = test system: white adipose tissue (WAT); assay: Quantitative real-time PCR of M1/M2 markers and adipogenic factors in white adipose tissue; assay type: in vivo, mice
Method: Total RNA was isolated from white adipose tissue (WAT) samples by using an easy-BLUE RNA extraction kit (iNtRON Biotechnology, Korea), and cDNA was synthesized using Cyclescript reverse transcriptase (Bioneer, Korea). The synthesized cDNA was subjected to quantitative real-time PCR (95° C. for 15 sec, 55° C. for 10 sec, and 72° C. for 10 sec) with SensiFAST SYBR no-Rox kit (Bioline, Korea), and each reaction was performed in triplicate. The primer sequences for the experiment were as follows:
The changes in macrophage phenotypes were analyzed by quantitative real-time PCR analysis.
More specifically, the expressions of TNF-α, IL-1β, and IL-12a were measured to investigate the effect of bvPLA2 on M1-related markers.
In addition, the expressions of the M2-related markers IL-4, CD206, and Ym1 were measured.
In addition, the expressions of PPARγ, C/EBPα, and UCP-1, which are markers related with lipid accumulation and adipogenesis, were measured.

[8] = bvPLA2-treated HFD group vs HFD group
[9] = serum, HFD+PLA2 group vs HFD group
[10] = M1-related marker, HFD+PLA2 group vs HFD group
[11] = M2-related marker, HFD-PLA2 group vs HFD group
[12] = lipid accumulation/adipogenesis marker, HFD+PLA2 group vs HFD group

## mellitin [reference compound]
Mice of the HFD group
  body weight change: increase in body weight

## phospholipase A2 [bvPLA2]
[1]; HFD+PLA2 group vs HFD group
  epididymal WAT weight: greatly reduced
  inguinal WAT weight: greatly reduced
[1]; HFD+PLA2 group vs HFD group without PLA2, 0.5 mg/kg intraperitoneally from week 5
  body weight: significant reduction in body weight
[1]; all groups (ND, HFD, with or without PLA2)
  food uptake: no food uptake change was observed
[2]
  adipose tissue weight: no significant changes
  body weight: no significant changes
[3]; IgG+PLA2 obesity-induced group vs IgG-only obesity-induced group
  body weight: significantly reduced
[3]; PC61+PLA2 group vs PC61-treated group
  body weight: markedly reduced
[4]; HFD+PLA2 group
  kidney hypertrophy (increased glomerular diameter): no kidney hypertrophy
[4]; ND+PLA2 group
  kidney hypertrophy (increased glomerular diameter): no kidney hypertrophy
  size and weight of the liver (lipid droplet accumulation and hepatomegaly): no influence was observed
[4]; [8]
  size and weight of the liver (lipid droplet accumulation and hepatomegaly): attenuated
[5]; HFD+PLA2 group vs HFD group
  plasma insulin level: significantly reduced
  plasma leptin level: significantly reduced
[5]; [8]
  serum ALT level: reduced
  serum AST level: reduced
  serum Crea level: reduced
[5]; [9]
  GLU level: significantly reduced
  HDL-C level: significantly reduced
  LDL-C level: significantly reduced
  TG level: significantly reduced
[6]
  CLS formation in AT: reduced
  macrophage infiltration in AT: reduced
[7]; HFD+PLA2 group vs HFD group
  UCP-1 expression: significantly increased
[7]; [10]
  IL-1β expression: inhibited to levels similar to those in ND
  IL-12a expression: inhibited to levels similar to those in ND
  TNF-α expression: inhibited to levels similar to those in ND
[7]; [11]
  CD206 expression: significantly increased
  IL-4 expression: significantly increased
[7]; [12]
  C/EBPα expression: inhibited
  PPARγ expression: inhibited
Mice of the HFD group
  body weight change: decrease in body weight

Reference: US20220211821A1, “COMPOSITION FOR PREVENTING OR TREATING OBESITY, COMPRISING PHOSPHOLIPASE A2 AS ACTIVE INGREDIENT” (UNIVERSITY-INOUSTRY COOPERATION GROUP OF KYUNG HEE …, priority 2019, published 2022)
